Assay results: patent publication US11602521B2, “N,N-dimethyltryptamine compositions and methods” (ATAI Life Sciences AG, priority 2021, dated 2023)
Read-outs that look alike come from different tables or passages of the source.

Experiment: DMT plasma concentration after a single SC injection of DMT succinate to rats
Assay type: in vivo
Conditions: for DMT plasma concentration: rats; for AUC0-24 hr/Dose / AUCTlast/Dose / Cmax/Dose / Tlast / AUC(0-t) / Tmax: Day 1, rats; for Cmax: both sexes, Day 1, rats males and females combined; for Cmax / AUC(0-t) / Tmax: rat, plasma; for AUC(0-t): sc
Source text: Example 2: Study of DMT Succinate Administered Subcutaneously

[1] = 5 mg/kg DMT succinate single SC
[2] = 10 mg/kg DMT succinate single SC

CN(C)CCc1c[nH]c2ccccc12 [DMT, N,N-dimethyltryptamine]
DMT plasma concentration (5 mg/kg DMT succinate SC, Time 0.5 h): 228
DMT plasma concentration (5 mg/kg DMT succinate SC, Time 1 h): 202
DMT plasma concentration (5 mg/kg DMT succinate SC, Time 2 h): 27.1
DMT plasma concentration (5 mg/kg DMT succinate SC, Time 4 h): 0
DMT plasma concentration (5 mg/kg DMT succinate SC, Time 8 h): 0
DMT plasma concentration (5 mg/kg DMT succinate SC, Time 12 h): 0
DMT plasma concentration (5 mg/kg DMT succinate SC, Time 24 h): 0
AUC0-24 hr/Dose [1]: 61.1 kg·ng·h/mL/mg
AUCTlast/Dose [1]: 55.7 kg·ng·h/mL/mg
Cmax/Dose [1]: 45.5 kg·ng/mL/mg
Tlast [1]: 2 h
DMT plasma concentration (10 mg/kg DMT succinate SC, Time 0.5 h): 836
DMT plasma concentration (10 mg/kg DMT succinate SC, Time 1 h): 1260
DMT plasma concentration (10 mg/kg DMT succinate SC, Time 2 h): 1170
DMT plasma concentration (10 mg/kg DMT succinate SC, Time 4 h): 149
DMT plasma concentration (10 mg/kg DMT succinate SC, Time 8 h): 0.707
DMT plasma concentration (10 mg/kg DMT succinate SC, Time 12 h): 0
DMT plasma concentration (10 mg/kg DMT succinate SC, Time 24 h): 0
AUC0-24 hr/Dose [2]: 143 kg·ng·h/mL/mg
AUCTlast/Dose [2]: 142 kg·ng·h/mL/mg
Cmax/Dose [2]: 50.5 kg·ng/mL/mg
Tlast [2]: 8 h
Cmax [1]: 228 ng/mL
Cmax [2]: 1260 ng/mL
AUC(0-t) (5 mg/kg, 5 mg/kg DMT succinate single SC, read-out: AUC0-24 hr): 306 ng·h/mL
AUC(0-t) (5 mg/kg, 5 mg/kg DMT succinate single SC, read-out: AUCTlast): 278 ng·h/mL
AUC(0-t) (10 mg/kg, 10 mg/kg DMT succinate single SC, read-out: AUC0-24 hr): 3560 ng·h/mL
AUC(0-t) (10 mg/kg, 10 mg/kg DMT succinate single SC, read-out: AUCTlast): 3560 ng·h/mL
Tmax [1]: 30 min
Tmax [2]: 60 min
